Patent US20110190235A1, “BORON-CONTAINING SMALL MOLECULES AS ANTIPROTOZOAL AGENTS” (Anacor Pharmaceuticals, Inc., priority 2009, published 2011)
pIC50: −log10 of the molar value. Read-outs that look alike come from different tables or passages of the source.

What was measured:
[1] = tested on: bloodstream-form trypanosome T. brucei brucei 427 strain; test: Trypanosoma brucei brucei high-throughput in vitro drug sensitivity assay (resazurin); format: cell-based; conditions: for Selectivity Index (L929 IC50 / T. b. brucei IC50): T. b. brucei vs L929
[2] = L929 cytotoxicity evaluation (resazurin); format: cell-based; conditions: mouse, 72 hrs incubation, read-out: Cytotox L-929 IC50
Procedure, shortened: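 Mouse L929 fibroblasts (1×10^4/mL seeding, attached overnight) were treated 72 h at 37 °C, 5% CO2 with serially diluted compounds in DMSO in D-MEM/10% FBS. Viability read by resazurin fluorescence after 3–4 h (ex 544/em 590 nm); IC50 from sigmoidal fits of single data points.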

[3] = Trypanosoma brucei, 72 hrs incubation, read-out: T.b. brucei IC50

Row | IC50 [1, 3] [µg/mL] | Compound | IC50 at 72 h ([2]; L929 mouse fibroblast cells) [µg/mL] | IC50 ([1]; Trypanosoma brucei, 72 h, read-out: T.b. brucei IC50 (ug/mL)) [µg/mL] | IC50 at 72 h [2] [µg/mL] | Selectivity Index (L929 IC50 / T. b. brucei IC50) [1] | pIC50 ([1]; Trypanosoma brucei, 72 hrs incubation, read-out: T. b. brucei IC50)
1 | > 5 | CC1(C)OB(O)c2cc(NC(=O)c3ccncc3)ccc21 [compound 116, N-(1-Hydroxy-3,3-dimethyl-1,3-dihydro-benzo[c][1,2]oxaborol-6-yl)-isonicotinamide] | > 10 | – | – | – | –
2 | 0.814 | Cc1ccc(C(=O)Nc2ccc3c(c2)B(O)OC3(C)C)c(Cl)n1 [compound 118] | > 10 | – | – | – | –
3 | 3.2 | Cc1occc1C(=O)Nc1ccc2c(c1)B(O)OC2(C)C [compound 121, 2-Methyl-furan-3-carboxylic acid (1-hydroxy-3,3-dimethyl-1,3-dihydro-benzo[c][1,2]oxaborol-6-yl)-amide] | > 10 | – | – | – | –
4 | > 5 | Cc1cc(C(=O)Nc2ccc3c(c2)B(O)OC3(C)C)c(C)o1 [compound 122, 2,5-Dimethyl-furan-3-carboxylic acid (1-hydroxy-3,3-dimethyl-1,3-dihydro-benzo[c][1,2]oxaborol-6-yl)-amide] | > 10 | – | – | – | –
5 | > 5 | CC1(C)OB(O)c2cc(NC(=O)c3cc[nH]n3)ccc21 [compound 123, 1H-Pyrazole-3-carboxylic acid (1-hydroxy-3,3-dimethyl-1,3-dihydro-benzo[c][1,2]oxaborol-6-yl)-amide] | > 10 | – | – | – | –
6 | > 5 | CC1(C)OB(O)c2cc(NC(=O)Cc3cccs3)ccc21 [compound 125, N-(1-Hydroxy-3,3-dimethyl-1,3-dihydro-benzo[c][1,2]oxaborol-6-yl)-2-thiophen-2-yl-acetamide] | > 10 | – | – | – | –
7 | 2.85 | CC1(C)OB(O)c2cc(NC(=O)C3CCC3)ccc21 [compound 127, Cyclobutanecarboxylic acid (1-hydroxy-3,3-dimethyl-1,3-dihydro-benzo[c][1,2]oxaborol-6-yl)-amide] | > 10 | – | – | – | –
8 | > 5 | CC1(C)OB(O)c2cc(NC(=O)C3CCCCC3)ccc21 [compound 129, Cyclohexanecarboxylic acid (1-hydroxy-3,3-dimethyl-1,3-dihydro-benzo[c][1,2]oxaborol-6-yl)-amide] | > 10 | – | – | – | –
9 | 3.81 | CCC(C)(C)C(=O)Nc1ccc2c(c1)B(O)OC2(C)C [compound 132, N-(1-Hydroxy-3,3-dimethyl-1,3-dihydro-benzo[c][1,2]oxaborol-6-yl)-2,2-dimethyl-butyramide] | > 10 | – | – | – | –
10 | 0.191 | O=C(Nc1ccc2c(c1)B(O)OC21CC1)c1ccc(F)cc1C(F)(F)F [compound 133] | > 10 | – | – | 100 | –

The next lines start with the compound.

Row | Compound | IC50 [1, 3] [µg/mL] | IC50 at 72 h ([2]; L929 mouse fibroblast cells) [µg/mL] | IC50 ([1]; Trypanosoma brucei, 72 h, read-out: T.b. brucei IC50 (ug/mL)) [µg/mL] | IC50 at 72 h [2] [µg/mL] | Selectivity Index (L929 IC50 / T. b. brucei IC50) [1] | pIC50 ([1]; Trypanosoma brucei, 72 hrs incubation, read-out: T. b. brucei IC50)
11 | CC1(C)OB(O)c2cc(NC(=O)c3cccc4cccnc34)ccc21 [compound 113, Quinoline-8-carboxylic acid (1-hydroxy-3,3-dimethyl-1,3-dihydro-benzo[c][1,2]oxaborol-6-yl)-amide] | > 5 | > 10 | – | – | – | –
12 | CC1(C)OB(O)c2cc(NC(=O)c3cccnc3)ccc21 [compound 115, N-(1-Hydroxy-3,3-dimethyl-1,3-dihydro-benzo[c][1,2]oxaborol-6-yl)-nicotinamide] | > 5 | > 10 | – | – | – | –
13 | CC1(C)OB(O)c2cc(NC(=O)c3ccc4ccccc4n3)ccc21 [compound 117, Quinoline-2-carboxylic acid (1-hydroxy-3,3-dimethyl-1,3-dihydro-benzo[c][1,2]oxaborol-6-yl)-amide] | 1.55 | > 10 | – | – | – | –
14 | CC1(C)OB(O)c2cc(NC(=O)c3cnccn3)ccc21 [compound 119, Pyrazine-2-carboxylic acid (1-hydroxy-3,3-dimethyl-1,3-dihydro-benzo[c][1,2]oxaborol-6-yl)-amide] | > 5 | > 10 | – | – | – | –
15 | CC1(C)OB(O)c2cc(NC(=O)c3ccoc3)ccc21 [compound 120, Furan-3-carboxylic acid (1-hydroxy-3,3-dimethyl-1,3-dihydro-benzo[c][1,2]oxaborol-6-yl)-amide] | > 5 | > 10 | – | – | – | –
16 | CC1(C)OB(O)c2cc(NC(=O)c3cccs3)ccc21 [compound 124, Thiophene-2-carboxylic acid (1-hydroxy-3,3-dimethyl-1,3-dihydro-benzo[c][1,2]oxaborol-6-yl)-amide] | 2.7 | > 10 | – | – | – | –
17 | CC1(C)OB(O)c2cc(NC(=O)C3CC3)ccc21 [compound 126, Cyclopropanecarboxylic acid (1-hydroxy-3,3-dimethyl-1,3-dihydro-benzo[c][1,2]oxaborol-6-yl)-amide] | > 5 | > 10 | – | – | – | –
18 | CC1(C)OB(O)c2cc(NC(=O)C3CCCC3)ccc21 [compound 128, Cyclopentanecarboxylic acid (1-hydroxy-3,3-dimethyl-1,3-dihydro-benzo[c][1,2]oxaborol-6-yl)-amide] | > 5 | > 10 | – | – | – | –
19 | CC(=O)Nc1ccc2c(c1)B(O)OC2(C)C [compound 130, N-(1-Hydroxy-3,3-dimethyl-1,3-dihydro-benzo[c][1,2]oxaborol-6-yl)-acetamide] | > 5 | > 10 | – | – | – | –
20 | CC1(C)OB(O)c2cc(NC(=O)C(F)(F)C(F)(F)C(F)(F)F)ccc21 [compound 131, 2,2,3,3,4,4,4-Heptafluoro-N-(1-hydroxy-3,3-dimethyl-1,3-dihydro-benzo[c][1,2]oxaborol-6-yl)-butyramide] | – | – | > 5 | > 10 | – | –
21 | O=C(Nc1ccc2c(c1)B(O)OC21CCCC1)c1ccccc1Cl [compound 137, 2-Chloro-N-(1-hydroxy-3,3-spirocyclopentyl′-1,3-dihydro-benzo[c][1,2]oxaborol-6-yl)-benzamide] | 3.62 | > 10 | – | – | >3 | 4.97
